According to ChEMBL document CHEMBL1201862, “PubChem BioAssay data set” (2004):
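48-hour exposure; five concentrations; linearly interpolated endpoints. GI50 = concentration required for 50% inhibition of growth.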 Calls of active or inactive are those of the source. Cut-off read from the data, not from the text of the source: active = GI50 up to about 1.1 µM and inactive = higher.

Legend:
Test in all cases: NCI anticancer screen, dose series, 48 h
ACHN = test system: ACHN
DU-145 = test system: DU-145
HL-60 = test system: HL-60
HOP-62 = test system: HOP-62
HOP-92 = test system: HOP-92
HT-29 = test system: HT-29
K562 = test system: K562
MDA-MB-435 = test system: MDA-MB-435
NCI-H23 = test system: NCI-H23
OVCAR-5 = test system: OVCAR-5
OVCAR-8 = test system: OVCAR-8
RPMI-8226 = test system: RPMI-8226
RXF 393 = test system: RXF 393
SF-295 = test system: SF-295
SF-539 = test system: SF-539
SK-OV-3 = test system: SK-OV-3
U-251 = test system: U-251
UACC-257 = test system: UACC-257
HCT-116 = test system: HCT-116
NCI-H522 = test system: NCI-H522

SMILES	GI50 (ACHN)	GI50 (DU-145)	GI50 (HL-60)	GI50 (HOP-62)	GI50 (HOP-92)	GI50 (HT-29)	GI50 (K562)	GI50 (MDA-MB-435)	GI50 (NCI-H23)	GI50 (OVCAR-5)	GI50 (OVCAR-8)	GI50 (RPMI-8226)	GI50 (RXF 393)	GI50 (SF-295)	GI50 (SF-539)	GI50 (SK-OV-3)	GI50 (U-251)	GI50 (UACC-257)	GI50 (HCT-116)	GI50 (NCI-H522)
CCOC(=O)c1csc(NC(=O)CCN2CCOCC2)n1	44.5 µM (inactive)	44.7 µM (inactive)	27.7 µM (inactive)	> 100 µM (inactive)	69.3 µM (inactive)	36.5 µM (inactive)	74.8 µM (inactive)	> 100 µM (inactive)	> 100 µM (inactive)	> 100 µM (inactive)	29.8 µM (inactive)	43.3 µM (inactive)	75.5 µM (inactive)	> 100 µM (inactive)	> 100 µM (inactive)	> 100 µM (inactive)	> 100 µM (inactive)	92.9 µM (inactive)		
O=C(O)/C=N/NC(=S)NC1CCCCC1	> 100 µM (inactive)	> 100 µM (inactive)	> 100 µM (inactive)	> 100 µM (inactive)	> 100 µM (inactive)	> 100 µM (inactive)	> 100 µM (inactive)	> 100 µM (inactive)	> 100 µM (inactive)	> 100 µM (inactive)	> 100 µM (inactive)	> 100 µM (inactive)		> 100 µM (inactive)	> 100 µM (inactive)	> 100 µM (inactive)	> 100 µM (inactive)	> 100 µM (inactive)	> 100 µM (inactive)	> 100 µM (inactive)
Cc1cnc2c(c1)C(=O)N(c1ccc(Oc3ccccc3)cc1)S2(=O)=O	> 100 µM (inactive)	> 100 µM (inactive)	> 100 µM (inactive)	> 100 µM (inactive)	> 100 µM (inactive)	> 100 µM (inactive)	> 100 µM (inactive)	> 100 µM (inactive)	> 100 µM (inactive)	> 100 µM (inactive)	> 100 µM (inactive)	> 100 µM (inactive)		> 100 µM (inactive)	> 100 µM (inactive)	> 100 µM (inactive)	> 100 µM (inactive)	> 100 µM (inactive)	> 100 µM (inactive)	57.7 µM (inactive)
CN1CN(c2ccccc2)C2(CCN(CCC3COc4ccccc4O3)CC2)C1=O (configuration not stated)	18.1 µM (inactive)	14.9 µM (inactive)	19.6 µM (inactive)	> 10 µM (inactive)		3.88 µM (inactive)	20.1 µM (inactive)	24.2 µM (inactive)	30.4 µM (inactive)	18.6 µM (inactive)	32.9 µM (inactive)	17.8 µM (inactive)	31.1 µM (inactive)	21.4 µM (inactive)	18.8 µM (inactive)	26.6 µM (inactive)	27.5 µM (inactive)	12.5 µM (inactive)	5.92 µM (inactive)	13.8 µM (inactive)
C#CCNC(CSSCC(N)C(=O)O)C(=O)O (configuration not stated)	> 100 µM (inactive)	> 100 µM (inactive)		> 100 µM (inactive)	4.73 µM (inactive)	> 100 µM (inactive)		> 100 µM (inactive)	> 100 µM (inactive)	> 100 µM (inactive)	> 100 µM (inactive)	> 100 µM (inactive)	> 100 µM (inactive)	> 100 µM (inactive)	> 100 µM (inactive)	> 100 µM (inactive)	> 100 µM (inactive)	> 100 µM (inactive)	> 100 µM (inactive)	> 100 µM (inactive)
C[N+](C)(C)c1ncnc2c1ncn2C1CCCCO1 (configuration not stated)	> 100 µM (inactive)	> 100 µM (inactive)	> 100 µM (inactive)	> 100 µM (inactive)	> 100 µM (inactive)	> 100 µM (inactive)	> 100 µM (inactive)	> 100 µM (inactive)	> 100 µM (inactive)	> 100 µM (inactive)	> 100 µM (inactive)	> 100 µM (inactive)	> 100 µM (inactive)	> 100 µM (inactive)		> 100 µM (inactive)	> 100 µM (inactive)	> 100 µM (inactive)	> 100 µM (inactive)	> 100 µM (inactive)
COC1CC(OC2C(C)OC(OC3C(C)OC(OC4C(C)OC(O[C@H]5CC[C@@]6(C)C(=CC[C@]7(O)[C@@H]6C[C@@H](OC(=O)/C=C/c6ccccc6)[C@@]6(C)[C@]7(O)CC[C@@]6(O)C(C)=O)C5)CC4OC)CC3OC)CC2OC)OC(C)C1O (some centres not stated)	> 12.5 µM (inactive)	> 12.5 µM (inactive)	6.75 µM (inactive)	> 12.5 µM (inactive)	> 12.5 µM (inactive)	> 12.5 µM (inactive)	> 12.5 µM (inactive)	> 12.5 µM (inactive)	> 12.5 µM (inactive)	> 12.5 µM (inactive)	> 12.5 µM (inactive)	5.98 µM (inactive)		> 12.5 µM (inactive)	> 12.5 µM (inactive)	> 12.5 µM (inactive)	> 12.5 µM (inactive)	> 12.5 µM (inactive)	> 12.5 µM (inactive)	> 12.5 µM (inactive)
CC1(C)OP(=O)(c2ccccc2)C=C1Br (configuration not stated)	> 100 µM (inactive)	> 100 µM (inactive)	21 µM (inactive)	> 100 µM (inactive)	> 100 µM (inactive)	> 100 µM (inactive)	> 100 µM (inactive)	> 100 µM (inactive)	> 100 µM (inactive)	> 100 µM (inactive)	> 100 µM (inactive)	0.348 µM (active)		> 100 µM (inactive)	> 100 µM (inactive)	> 100 µM (inactive)	> 100 µM (inactive)	> 100 µM (inactive)	> 100 µM (inactive)	> 100 µM (inactive)
CC(=O)NCCc1c(-c2[nH]c3ccccc3c2CCNC(C)=O)[nH]c2ccccc12	66.7 µM (inactive)	> 100 µM (inactive)		85.7 µM (inactive)	22.2 µM (inactive)	> 100 µM (inactive)	> 100 µM (inactive)	> 100 µM (inactive)	> 100 µM (inactive)	66.7 µM (inactive)	78.2 µM (inactive)	> 100 µM (inactive)	> 100 µM (inactive)	> 100 µM (inactive)	74.5 µM (inactive)	51.2 µM (inactive)	> 100 µM (inactive)	> 100 µM (inactive)	> 100 µM (inactive)	
CSC1=N/C(=C\c2ccc(C)cc2)C(=O)N1CN1CCOCC1	35.4 µM (inactive)	76 µM (inactive)	> 100 µM (inactive)	89.1 µM (inactive)	> 100 µM (inactive)		34.3 µM (inactive)	99.8 µM (inactive)	92.7 µM (inactive)	> 100 µM (inactive)	45.6 µM (inactive)	23.7 µM (inactive)		> 100 µM (inactive)		> 100 µM (inactive)	40.8 µM (inactive)		35.7 µM (inactive)	97.5 µM (inactive)
C[Si](C)(C)CNC(=O)OCc1ccccc1	> 100 µM (inactive)	> 100 µM (inactive)	57.4 µM (inactive)	58.1 µM (inactive)	22.1 µM (inactive)	48 µM (inactive)	48.9 µM (inactive)	> 100 µM (inactive)	76 µM (inactive)	> 100 µM (inactive)	> 100 µM (inactive)	32.2 µM (inactive)		> 100 µM (inactive)	> 100 µM (inactive)	0.962 µM (active)	> 100 µM (inactive)	> 100 µM (inactive)	> 100 µM (inactive)	83.2 µM (inactive)
Cc1cc(=O)nc(S(=O)(=O)NC(=O)Nc2cccc(Cl)c2)[nH]1	> 100 µM (inactive)	> 100 µM (inactive)		> 100 µM (inactive)	6.93 µM (inactive)	> 100 µM (inactive)	> 100 µM (inactive)	> 33.5 µM (inactive)	> 100 µM (inactive)	> 100 µM (inactive)	> 100 µM (inactive)		> 71.4 µM (inactive)	16.2 µM (inactive)	> 100 µM (inactive)	> 100 µM (inactive)	97.3 µM (inactive)	> 100 µM (inactive)	> 100 µM (inactive)	> 100 µM (inactive)
N#C/C(N)=C(C#N)/N=C/N	> 100 µM (inactive)	> 100 µM (inactive)	> 100 µM (inactive)	> 100 µM (inactive)	> 100 µM (inactive)	> 100 µM (inactive)	> 100 µM (inactive)	> 100 µM (inactive)	> 100 µM (inactive)	> 100 µM (inactive)	> 100 µM (inactive)	> 100 µM (inactive)		> 100 µM (inactive)	> 100 µM (inactive)	> 100 µM (inactive)	> 100 µM (inactive)	> 100 µM (inactive)	> 100 µM (inactive)	
CCOC(=O)c1ccc(Nc2cnc3ccc(C(F)(F)F)cc3n2)cc1	15.2 µM (inactive)	18.2 µM (inactive)	15.9 µM (inactive)	20.6 µM (inactive)	6.18 µM (inactive)	11.9 µM (inactive)	19 µM (inactive)	21.5 µM (inactive)	15 µM (inactive)	24.9 µM (inactive)	12.8 µM (inactive)	27.2 µM (inactive)	8.18 µM (inactive)	20.7 µM (inactive)	28.1 µM (inactive)	35.9 µM (inactive)	16.8 µM (inactive)	18.4 µM (inactive)	14.8 µM (inactive)	
CCCCCCCCCCCCCCCCCCNc1ccn(C2OC(COP(=O)(O)OCC3OC(n4ccc(NC(=O)CCCCCCCCCCCCCCCCC)nc4=O)C(OC(C)=O)C3OC(C)=O)C(OC(C)=O)C2OC(C)=O)c(=O)n1 (configuration not stated)	> 100 µM (inactive)	> 100 µM (inactive)	> 100 µM (inactive)	> 100 µM (inactive)		> 100 µM (inactive)	0.0551 µM (active)	> 100 µM (inactive)	> 100 µM (inactive)	> 100 µM (inactive)	> 100 µM (inactive)	> 100 µM (inactive)	> 100 µM (inactive)	> 100 µM (inactive)	> 100 µM (inactive)	> 100 µM (inactive)	> 100 µM (inactive)	> 100 µM (inactive)	> 100 µM (inactive)	> 100 µM (inactive)
